Assay results as given in ChEMBL document CHEMBL3137667, “[Drug-induced liver injury; fourteenth updated edition of the bibliographic database of liver injuries and related drugs]” (Gastroenterol Clin Biol, 2004).

Experiments:
[1] = Highest frequency of moderate liver toxicity observed during clinical trials, expressed as a percentage. [column '% BIOL' in source]; settings: human
[2] = Highest frequency of acute liver toxicity observed during clinical trials, expressed as a percentage. [column '% AIGUE' in source]; settings: human
[3] = Comments (NB not yet translated). [column 'COMMENTAIRES' in source]; settings: human
[4] = Times to onset, minimal and maximal, observed in the indexed observations. [column 'DELAI' in source]; settings: human
[5] = Proposed mechanism(s) of liver damage. [column 'MEC' in source]; settings: human
[6] = human, serum
[7] = human, serum; remark: listed apart in the source
[8] = human
[9] = human; remark: listed apart in the source
[10] = human; remark: listed apart in the source
[11] = human, serum, 4383 h
[12] = human; remark: listed apart in the source
[13] = human; remark: listed apart in the source
[14] = human; remark: listed apart in the source
[15] = human; remark: listed apart in the source
[16] = human; remark: listed apart in the source
[17] = human; remark: listed apart in the source
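For Hepatotoxicity (association with vascular disease) in this document: count of indexed literature references reporting vascular liver injury in humans, e.g. peliosis hepatitis, hepatic veno-occlusive disease or Budd-Chiari syndrome.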
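For Hepatotoxicity (benign tumour) in this document: value is a count of indexed literature references citing a benign tumour confirmed by histopathology.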
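For Hepatotoxicity (choleostasis) in this document: human cholestatic liver injury, shown by histopathology or by peak ALT or AST elevation over alkaline phosphatase ratio below 2, value counts indexed literature reports.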
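For Hepatotoxicity (chronic liver disease) in this document: chronic liver injury confirmed by histopathology or persistently raised serum aminotransferase activity beyond 6 months, value given as the count of indexed literature references.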
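For Hepatotoxicity (cirrhosis) in this document: value is a count of indexed literature references reporting cirrhosis confirmed by histopathology.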
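For Hepatotoxicity (cytolytic) in this document: human cytolytic liver injury, shown by histopathology or by a ratio above 5 of peak ALT or AST elevation to alkaline phosphatase elevation, value counts indexed references.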
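For Hepatotoxicity (granulomatous hepatitis) in this document: value is a count of indexed literature references reporting granulomatous liver disease confirmed by histopathology.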
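For Hepatotoxicity (malignant tumour) in this document: malignant tumour confirmed by histopathology, value gives the count of indexed literature references reporting it.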
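For Hepatotoxicity (severe hepatitis) in this document: human clinical data: severe hepatitis, meaning potentially life-threatening liver failure or clinically observed cases, the value counts how many indexed literature references report it.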
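For Hepatotoxicity (steatosis) in this document: steatosis confirmed by histopathology, value is the count of indexed references.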

Row | Compound | Hepatotoxicity (moderate) ([1]; Liver) | Hepatotoxicity (acute) ([2]; Liver) | Hepatotoxicity (comment) [3] | Hepatotoxicity (time to onset) [4] | Hepatotoxicity (moderate) [6] | Hepatotoxicity (acute) [7] | Hepatotoxicity (severe hepatitis) ([10]; Liver) | Hepatotoxicity (chronic liver disease) [11] | Hepatotoxicity (cirrhosis) [12] | Hepatotoxicity (association with vascular disease) [14] | Hepatotoxicity (steatosis) [15] | Hepatotoxicity (malignant tumour) [16] | Hepatotoxicity (benign tumour) [17] | Hepatotoxicity (moderate) [1] | Hepatotoxicity (acute) [2] | Hepatotoxicity (mechanism) [5] | Hepatotoxicity (cytolytic) [8] | Hepatotoxicity (choleostasis) [9] | Hepatotoxicity (severe hepatitis) [10] | Hepatotoxicity (granulomatous hepatitis) [13] | other results
1 | Cc1c(C)c2c(c(C)c1O)CC[C@@](C)(CCC[C@H](C)CCC[C@H](C)CCCC(C)C)O2 [ALPHA-TOCOPHEROL] | 0% | 0% | CONCERNE_E-FEROL* | 1 week - 2 months | 0 | 3 | 4 | 0 | 0 | 0 | 0 | 0 | 0 |  |  |  |  |  |  |  | Hepatotoxicity (mechanism) ([5]; Liver): Dose-dependant; Hepatotoxicity (cytolytic) ([8]; Liver): 3; Hepatotoxicity (choleostasis) ([9]; Liver): 3; Hepatotoxicity (granulomatous hepatitis) ([13]; Liver): 0
2 | CCCN(CCC)C(=O)Cc1c(-c2ccc(Cl)cc2)nc2ccc(Cl)cn12 [ALPIDEM] |  |  | AC_ANTI-N | 1 month - 8 months | 0 | 5 |  | 0 | 0 | 0 | 0 | 0 | 0 | 0% | 0% | Allergic | 4 | 0 | 5 | 0 | 
3 | CCOC(=O)C1=C(COCCN)NC(C)=C(C(=O)OC)C1c1ccccc1Cl (stereo not drawn) [AMLODIPINE] | 12.8% | 0% | CHOLANGIOLITE AC_ANTI-M/-N RC/DILTIAZEM | 1 month - 10 months | 2 | 4 | 0 | 0 | 0 | 0 | 0 | 0 | 0 |  |  | Allergic | 3 | 2 |  | 0 | 
4 | CC1(C)S[C@@H]2[C@H](NC(=O)[C@H](N)c3ccc(O)cc3)C(=O)N2[C@H]1C(=O)O [AMOXICILLIN] | 8% | 0% | CHOLESTASE_PROLONGEE CHOLANGITE DUCTOPENIE RC/ERYTHROMYCINE | 3 days - 8 weeks | 7 | 10 | 1 | 1 | 0 | 0 | 0 | 0 | 0 |  |  | Allergic | 2 | 7 |  | 1 | 
5 | CC(C)c1c(C(=O)Nc2ccccc2)c(-c2ccccc2)c(-c2ccc(F)cc2)n1CC[C@@H](O)C[C@@H](O)CC(=O)O [ATORVASTATIN] |  |  | AC_ANTI-N/-ML | 6 days - 7 months | 36 | 10 |  | 1 | 1 | 0 | 0 | 0 | 0 | 13.6% | 1.8% | Allergic | 5 | 6 | 1 | 0 | 
6 | CC[C@H]1OC(=O)[C@H](C)[C@@H](O[C@H]2C[C@@](C)(OC)[C@@H](O)[C@H](C)O2)[C@H](C)[C@@H](O[C@@H]2O[C@H](C)C[C@H](N(C)C)[C@H]2O)[C@](C)(O)C[C@@H](C)CN(C)[C@H](C)[C@@H](O)[C@]1(C)O [AZITHROMYCIN] |  |  | CHOLANGITE | 3 days - 18 days | 53 | 5 |  | 0 | 0 | 0 | 0 | 0 | 0 | 40% | 0% | Allergic | 0 | 4 | 0 | 0 | 
7 | CO[C@@]1(NC(=O)Cc2cccs2)C(=O)N2C(C(=O)O)=C(COC(N)=O)CS[C@@H]21 [CEFOXITIN] |  |  | CHOLESTASE_PROLONGEE | 17 days | 18 | 1 |  | 0 | 0 | 0 | 0 | 0 | 0 | 25.8% | 0% | Allergic | 0 | 1 | 0 | 0 | 
8 | CC(=O)OCC1=C(C(=O)O)N2C(=O)[C@@H](NC(=O)Cc3cccs3)[C@H]2SC1 [CEPHALOTHIN] |  |  | RC/NAFCILLINE/OXACILLINE/CEFAPIRINE | 1 day - 1 month | 4 | 4 |  | 0 | 0 | 0 | 0 | 0 | 0 | 1.5% | 0% | Allergic | 1 | 1 | 0 | 0 | 
9 | CC1=C(C(=O)O)N2C(=O)[C@@H](NC(=O)[C@H](N)C3=CCC=CC3)[C@H]2SC1 [CEPHRADINE] |  |  | CHOLECYSTITE_A_EOSINOPHILES | 3 weeks | 1 | 1 |  | 0 | 0 | 0 | 0 | 0 | 0 | 24.3% | 0% | Allergic | 0 | 1 | 0 | 0 | 
